According to publication PMC11906898 (Nature Communications, 2025):
Where two headings read alike, the source gives them in different places.

Key:
[1] = in vitro; assay type: in vitro ADME; conditions: human, microsomes, pH 7.4
[2] = test system: spontaneous ambulation; assay type: in vivo, C57BL6/J mice; conditions: C6-Quino 30 mg/kg s.c.; morphine 10 or 30 mg/kg s.c.
[3] = test system: respiration rate; assay type: in vivo, C57BL6/J mice; conditions: 30 mg/kg sc
[4] = test system: seizurogenic activity; conditions: mouse, in vivo
[5] = test system: seizurogenic activity

CCN(CC)CCNC(=O)c1c(C)[nH]c(/C=C2\C(=O)Nc3ccc(F)cc32)c1C [Sunitinib]
half-life [1]: 27 min

CN1CC[C@]23c4c5ccc(O)c4O[C@H]2[C@@H](O)C=C[C@H]3[C@H]1C5 [morphine]
locomotion [2]: significant increase in locomotion above baseline | breath rate [3]: showed respiratory depression

SNC80
duration of seizures [4]: 20 min | seizures after sc dosing [4]: produced robust seizures | seizures after intracerebroventricular dosing ([5]; mouse, in vivo): caused robust seizures

TAN67
seizures after intracerebroventricular dosing ([5]; 100 nmol i.c.v.): caused robust seizures
